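Briefly, cells in 96-well plates were exposed to five compound concentrations for 48 h, and endpoints were estimated by linear interpolation. Abbreviation: GI50, concentration required for 50% inhibition of growth.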 Active and inactive are the calls of the source. Cut-off read from the data, not from the text of the source: active = GI50 up to about 1.1 µM and inactive = higher. Where only a bound is given, the exact number is not on record here.

This note sets out measurements from ChEMBL document CHEMBL1201862, “PubChem BioAssay data set” (2004).

Test systems include 786-0; A549; BT-549; CAKI-1; K562; M14; MDA-N; NCI-H226; OVCAR-5; OVCAR-8; RXF 393; SF-268; SK-MEL-28; SK-OV-3; SNB-19; T47D; U-251; UACC-257.
What all share (test): inhibition of tumour cell growth, NCI panel, 48 h

For `N#Cc1c(N2CCN(c3ccc([N+](=O)[O-])cc3)CC2)[n+]([O-])c2ccc(Cl)cc2[n+]1[O-]`, the GI50 with 786-0 was 0.718 µM (active); in the assay with A549, 2.02 µM (inactive); in the assay on BT-549, 0.264 µM (active); in the assay on CAKI-1, 0.489 µM (active); in the assay on K562, 0.231 µM (active); in the assay with M14 it was 1.56 µM (inactive). Moreover, the GI50 in the assay with MDA-N is 1.75 µM (inactive); with NCI-H226, 2.29 µM (inactive); in the assay with OVCAR-5, 3.4 µM (inactive); with OVCAR-8, 1.11 µM (active); in the assay with RXF 393, 1.79 µM (inactive); in the assay on SF-268 it was 1.86 µM (inactive). Also, the GI50 is 4.52 µM (inactive) in the assay on SK-MEL-28; 1.78 µM (inactive) in the assay on SK-OV-3; 2.81 µM (inactive) in the assay with SNB-19; 0.716 µM (active) with T47D; 0.738 µM (active) with U-251; 2.65 µM (inactive) in the assay with UACC-257.
With `N=c1oc2cc(O)ccc2cc1C(=O)NCc1ccccc1`, the GI50 in the assay on 786-0 is 32.1 µM (inactive); in the assay on A549, 31.8 µM (inactive); with BT-549, 17.3 µM (inactive); with CAKI-1, 20.3 µM (inactive); with K562, 10.3 µM (inactive); with M14, 34.7 µM (inactive). Moreover, the GI50 with MDA-N is 19.3 µM (inactive); with NCI-H226, 32.8 µM (inactive); in the assay on OVCAR-5 it was 53.7 µM (inactive); in the assay on OVCAR-8, 27.4 µM (inactive); in the assay with RXF 393, 19.5 µM (inactive); in the assay on SF-268, 23.1 µM (inactive). The GI50 with SK-MEL-28 was 27.6 µM (inactive); with SK-OV-3, 16.2 µM (inactive); in the assay on SNB-19, 23.7 µM (inactive); in the assay with T47D, 8.61 µM (inactive); with U-251 it was 18.7 µM (inactive); with UACC-257 it was 44.7 µM (inactive).
With `COc1ccc(/C=C2\CCCCCC2=O)cc1`, the GI50 in the assay with 786-0, in the assay on A549, in the assay with BT-549, in the assay on CAKI-1, in the assay on K562 and with M14 was > 100 µM (inactive) each time. For the same compound, the GI50 in the assay with MDA-N, with NCI-H226, in the assay on OVCAR-5, with OVCAR-8, in the assay with RXF 393 and with SF-268 was > 100 µM (inactive) throughout. The GI50 in the assay on SK-MEL-28, in the assay on SK-OV-3, in the assay on SNB-19, in the assay with T47D, in the assay with U-251 and in the assay with UACC-257 was > 100 µM (inactive) throughout.
For `COC(=O)C1(CCCCl)CCCN1C(=O)OC(C)(C)C` (stereo not given), the GI50 is > 100 µM (inactive) with 786-0; > 100 µM (inactive) with A549; > 100 µM (inactive) with BT-549; > 100 µM (inactive) in the assay with CAKI-1; 36.7 µM (inactive) in the assay on K562; > 100 µM (inactive) in the assay on MDA-N. The GI50 with NCI-H226 was 75.5 µM (inactive); in the assay on OVCAR-5, > 100 µM (inactive); with RXF 393, > 100 µM (inactive); in the assay with SF-268, > 100 µM (inactive); in the assay with SK-MEL-28 it was > 100 µM (inactive); with SK-OV-3 it was > 100 µM (inactive). For the same compound, the GI50 in the assay on SNB-19, with T47D, with U-251 and in the assay on UACC-257 was > 100 µM (inactive) in each case.
